Measured values published in patent US20260256756A1, “USE OF PIPERIDINE ALKENE COMPOUND IN PREPARATION OF DRUG FOR TREATING CANCER” (JIANGSU HANSOH PHARMACEUTICAL GROUP CO., LTD., priority 2023, published 2026).

Tested on: human pancreatic cancer cell line Capan-1 xenograft tumor
Assay: Subcutaneous xenograft tumor model of human pancreatic cancer cell line Capan-1
Type: in vivo, BALB/c nude mice
Settings: Capan-1, 100 mg/kg oral once/day
Description: • 1. Experimental objective: To evaluate the in vivo efficacy of compound 1 in a subcutaneous xenograft tumor model of human pancreatic cancer cell line Capan-1 in nude mice. • 2. Reagent • IMDM medium (30-2005, ATCC) and fetal bovine serum (FBS) (35-081-CV, Corning) • DPBS (21-031-CVR, Corning) and Matrigel (354234, Corning) • HPMC (H02J10D78204, Shanghai Yuanye Bio-Technology Co., Ltd.) • Trypsin-EDTA (25200-072, Gibco), penicillin and streptomycin (MA0110, Dalian Meilun Biotechnology Co., Ltd.) • 3. Experimental operations and data processing • 3.1 Animals: • BALB/c nude mice, 6-8 weeks old, female, purchased from Jiangsu GemPharmatech Co., Ltd. • 3.2 Cell culture and cell suspension preparation • a. A vial of Capan-1 cells was taken from a cell bank, the cells were thawed with IMDM medium (IMDM+20% FBS), and the thawed cells were placed in a cell culture flask (with the cell type, date, the name of the culture operator, etc., being marked on the wall of the flask), which were placed in a CO2 incubator for culturing (wherein the temperature of the incubator was 37° C., and the CO2 concentration was 5%). • b. The cells were passaged once a week, and after passage, the cells were placed in the CO2 incubator to continue the culture. This process was repeated until the cell number met the requirements for in vivo efficacy. • c. The cultured cells were collected, counted using a full-automatic cell counter, and resuspended with PBS on the basis of the counting results to prepare a cell suspension (at a density of 5×10^7/mL). An equal volume of Matrigel was added to the cell suspension, and the resulting mixture was mixed uniformly and then placed in an ice box for later use. • 3.3 Cell inoculation • a. Before inoculation, the nude mice were marked with disposable universal ear tags for mice and rats. • b. At the time of inoculation, the cell suspension was mixed uniformly, 0.2-1 mL of the cell suspension was aspirated using a 1 mL syringe with air bubbles expelled, and the syringe was then placed on an ice bag for later use. • c. […] Tumor was measured on days 4-7 after inoculation depending on the tumor growth, and the tumor size was calculated.
tumor volume (mm^3)=length (mm)×width (mm)×width (mm)/2 Tumor volume calculation: • b. […] The tumor inhibitory efficacy of the compound was evaluated by TGI (%) and ΔT/ΔC (%). ΔT/ΔC (%)=(T−T0)/(C−C0)×100, where T and C are the tumor volumes of the treatment group and the vehicle control group at the end of the experiment, respectively, and T0 and C0 are the tumor volumes of the treatment group and the vehicle control group at the beginning of the experiment, respectively. […]

For `O=C(c1cc(Cc2n[nH]c(=O)c3ccccc23)ccc1F)N1CCN(C(=O)C2CC2)CC1` [Olaparib], the “Tumor volume (Mean ± SEM)” value (Day 0) was 164 ± 13 mm^3, the T/C (Day 28) was 86.27% and the TGI (Day 28) was 14.39%. For the same molecule, the “Tumor volume (Mean ± SEM)” value (Day 28) was 724 ± 82 mm^3.
